Laboratory results: publication PMC10196831, “Therapeutic effect of ultra-long-lasting human C-peptide delivery against hyperglycemia-induced neovascularization in diabetic retinopathy” (Theranostics, 2023)

Assays:
[1] = Intraocular C-peptide levels by human C-peptide ELISA after intravitreal injection; type: in vivo, C57BL/6 mice; settings: C57BL/6, mouse, 1.2 ug, single intravitreal injection of equimolar K9-C-peptide (20 μg) or human C-peptide (1.2 μg), whole eyeball lysate, 50 kDa cutoff filtrate, n = 6, read-out: intraocular human C-peptide level at 1 day after injection
Method: To analyze the levels of C-peptide released from intravitreal K9-C-peptide depots, mice were anesthetized with 3% isoflurane and intravitreally injected with a total volume of 2 μL containing 0.6 mg/mL (1.2 μg) C-peptide or 10 mg/mL (20 μg) K9-C-peptide. Proteins were extracted from whole eyeballs using lysis buffer containing 50 mmol/L Tris (pH 7.5), 150 mmol/L sodium chloride, 1% Triton X-100, protease inhibitor cocktail (Roche, Basel, Switzerland), 25 mmol/L β-glycerophosphate, and 2 mmol/L sodium orthovanadate. The lysates were centrifuged at 14,000 rpm for 15 min, and then the supernatants were centrifuged at 8,000 rpm for 10 min using Amicon® Ultra 4 mL centrifugal filters with a molecular weight cutoff of 50 kDa (MilliporeSigma). C-peptide levels in the filtered supernatants (n = 6) were measured using a human C-peptide ELISA kit (MilliporeSigma) according to the manufacturer's protocol.

[2] = in vivo; cited from earlier work

CC(C)C[C@H](NC(=O)[C@H](C)NC(=O)[C@H](CC(C)C)NC(=O)[C@@H]1CCCN1C(=O)[C@H](CCC(N)=O)NC(=O)[C@H](CC(C)C)NC(=O)[C@H](CO)NC(=O)CNC(=O)[C@H](C)NC(=O)CNC(=O)[C@@H]1CCCN1C(=O)CNC(=O)CNC(=O)CNC(=O)[C@H](CC(C)C)NC(=O)[C@H](CCC(=O)O)NC(=O)[C@@H](NC(=O)[C@H](CCC(N)=O)NC(=O)CNC(=O)[C@@H](NC(=O)[C@H](CCC(N)=O)NC(=O)[C@H](CC(C)C)NC(=O)[C@H](CC(=O)O)NC(=O)[C@H](CCC(=O)O)NC(=O)[C@H](C)NC(=O)[C@@H](N)CCC(=O)O)C(C)C)C(C)C)C(=O)N[C@@H](CCC(=O)O)C(=O)NCC(=O)N[C@@H](CO)C(=O)N[C@@H](CC(C)C)C(=O)N[C@@H](CCC(N)=O)C(=O)O [human C-peptide]
level at time molar at 24 h [1]: 0.07 nM
circulating half-life [2]: 30 min
